Measurements taken from patent publication US8575197B2, “Pyrolinone derivative and pharmaceutical composition comprising the same” (Shionogi & Co., Ltd., priority 2008, dated 2013).

These compounds were tested against human P2X3 receptor (Homo sapiens (Human), UniProt P56373) (assay: P2X3 receptor inhibition, ATP-evoked Fluo-3 calcium fluorescence (FDSS 3000)). Settings: C6BU-1 cell transfected with human P2X3 receptor gene; ATP-evoked Fluo-3 fluorescence.
Format: cell-based
Summary of the method: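 C6BU-1 cells stably transfected with human P2X3, loaded with 4 μM Fluo-3-AM for 1 h at 37 °C in HEPES buffer pH 7.5 with probenecid. Compound added 5 min before 40 nM ATP solution; fluorescence followed 3 min. IC50 from ratio of peak post-ATP to baseline fluorescence.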

Sequence of human P2X3 receptor (P56373 whole entry): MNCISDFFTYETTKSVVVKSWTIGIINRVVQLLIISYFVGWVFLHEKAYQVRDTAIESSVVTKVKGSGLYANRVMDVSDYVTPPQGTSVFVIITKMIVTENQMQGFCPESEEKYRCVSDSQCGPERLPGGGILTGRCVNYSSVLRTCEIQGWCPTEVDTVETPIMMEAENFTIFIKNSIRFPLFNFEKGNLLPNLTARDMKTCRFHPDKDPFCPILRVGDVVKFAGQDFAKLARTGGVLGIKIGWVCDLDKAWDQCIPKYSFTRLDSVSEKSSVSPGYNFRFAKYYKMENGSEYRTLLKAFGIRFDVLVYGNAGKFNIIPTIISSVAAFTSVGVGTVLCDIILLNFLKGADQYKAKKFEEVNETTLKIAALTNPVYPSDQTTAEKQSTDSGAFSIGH

| Compound | IC50 |
| --- | --- |
| Cc1cc(-c2ccc(N3C(=O)C(O)=C(C(=O)CC(C)C)C3c3ccccc3OC(F)(F)F)cc2)on1 (stereo not shown) [Compound I-344] | 594 nM |
| Cc1cc(-c2ccc(N3C(=O)C(O)=C(C(=O)CC(C)C)C3c3ccccc3OCCO)cc2)on1 (stereo not shown) [Compound I-345] | 999 nM |
| COCCOc1ccccc1C1C(C(=O)CC(C)C)=C(O)C(=O)N1c1ccc(-c2cc(C)no2)cc1 (stereo not shown) [Compound I-346] | 677 nM |
| COCCOc1ccccc1C1C(C(=O)CC(C)C)=C(O)C(=O)N1c1ccc(-c2ccoc2)cc1 (stereo not shown) [Compound I-348] | 55 nM |
| CC(C)CC(=O)C1=C(O)C(=O)N(c2ccc(-c3ccoc3)cc2)C1c1ccccc1OCCO (stereo not shown) [Compound I-350] | 66 nM |
| COc1ccccc1C1C(C(=O)CC(C)C)=C(O)C(=O)N1c1ccc(-c2ccoc2)cc1 (stereo not shown) [Compound I-351] | 101 nM |
| COCc1ccccc1C1C(C(=O)C(C)C)=C(O)C(=O)N1c1ccc2c(c1)cc(C)n2C (stereo not shown) [Compound I-353] | 210 nM |
| COCc1ccccc1C1C(C(=O)C(C)C)=C(O)C(=O)N1c1ccc(-c2ccco2)cc1 (stereo not shown) [Compound I-354] | 57 nM |
| COCCOc1cc(F)ccc1C1C(C(=O)CC(C)C)=C(O)C(=O)N1c1ccc(-c2noc(C)n2)cc1 (stereo not shown) [Compound I-365] | 82 nM |
| COCCOc1cc(F)ccc1C1C(C(=O)C(C)C)=C(O)C(=O)N1c1ccc(-c2noc(C)n2)cc1 (stereo not shown) [Compound I-369] | 91 nM |
| Cc1cc(-c2ccc(N3C(=O)C(O)=C(C(=O)CC(C)C)C3c3ccccc3OC(C)C)cc2)on1 (stereo not shown) [Compound I-370] | 194 nM |
| COc1ncccc1C1C(C(=O)CC(C)C)=C(O)C(=O)N1c1ccc(-c2csc(C)c2)cc1 (stereo not shown) [Compound I-371] | 447 nM |
| Cc1cc(-c2ccc(N3C(=O)C(O)=C(C(=O)CC(C)C)C3c3ccccc3OC(C)C)cc2)cs1 (stereo not shown) [Compound I-373] | 51 nM |
| Cc1cc(-c2ccc(N3C(=O)C(O)=C(C(=O)CC(C)C)C3c3ccccc3OC(F)F)cc2)cs1 (stereo not shown) [Compound I-377] | 148 nM |
| Cc1cc(-c2ccc(N3C(=O)C(O)=C(C(=O)CC(C)C)C3c3ccccc3OC(F)(F)F)cc2)cs1 (stereo not shown) [Compound I-378] | 192 nM |
| COc1ccccc1C1C(C(=O)CC(C)C)=C(O)C(=O)N1c1ccc(-c2csc(C)c2)cc1 (stereo not shown) [Compound I-379] | 118 nM |
| COCc1ccccc1C1C(C(=O)C(C)C)=C(O)C(=O)N1c1ccc2sc(C)nc2c1 (stereo not shown) [Compound I-385] | 227 nM |

| Compound | IC50 |
| --- | --- |
| COCCOc1ccccc1C1C(C(=O)CC(C)C)=C(O)C(=O)N1c1ccc(-c2coc(C)n2)cc1 (stereo not shown) [Compound I-391] | 684 nM |
| COCc1ccccc1C1C(C(=O)CC(C)C)=C(O)C(=O)N1c1ccc(-c2coc(C)n2)cc1 (stereo not shown) [Compound I-392] | 946 nM |
| Cc1ccc(-c2ccc(N3C(=O)C(O)=C(C(=O)C(C)C)C3c3ccccc3C(=O)N(C)C)cc2)o1 (stereo not shown) [Compound I-397] | 122 nM |
| Cc1ccc(-c2ccc(N3C(=O)C(O)=C(C(=O)C(C)C)C3c3ccccc3C(=O)N(C)C)cc2)s1 (stereo not shown) [Compound I-401] | 79 nM |
| Cc1ccc(-c2ccc(N3C(=O)C(O)=C(C(=O)CC(C)C)C3c3ccccc3OC(C)C)cc2)s1 (stereo not shown) [Compound I-402] | 80 nM |
| Cc1cc(-c2ccc(N3C(=O)C(O)=C(C(=O)CC(C)C)C3c3ccccc3C(=O)N(C)C)cc2)cs1 (stereo not shown) [Compound I-404] | 71 nM |
| Cc1cc(-c2ccc(N3C(=O)C(O)=C(C(=O)C(C)C)C3c3ccccc3C(=O)N(C)C)cc2)cs1 (stereo not shown) [Compound I-409] | 177 nM |
| COCCOc1ccccc1C1C(C(=O)CC(C)C)=C(O)C(=O)N1c1ccc(C2=NCCS2)cc1 (stereo not shown) [Compound I-410] | 151 nM |
| COc1ccccc1C1C(C(=O)CC(C)C)=C(O)C(=O)N1c1ccc(C2=NCCS2)cc1 (stereo not shown) [Compound I-412] | 310 nM |
| COCc1ccccc1C1C(C(=O)CC(C)C)=C(O)C(=O)N1c1ccc(C2=NCCS2)cc1 (stereo not shown) [Compound I-414] | 268 nM |
| COc1ccccc1C1C(C(=O)C(C)C)=C(O)C(=O)N1c1ccc(-c2cscn2)cc1 (stereo not shown) [Compound I-416] | 322 nM |
| COCCOc1ccccc1C1C(C(=O)C(C)C)=C(O)C(=O)N1c1ccc(-c2cscn2)cc1 (stereo not shown) [Compound I-417] | 181 nM |
| COCc1ccccc1C1C(C(=O)C(C)C)=C(O)C(=O)N1c1ccc(-c2cscn2)cc1 (stereo not shown) [Compound I-418] | 593 nM |
| COc1ccccc1C1C(C(=O)CC(C)C)=C(O)C(=O)N1c1ccc(-c2cscn2)cc1 (stereo not shown) [Compound I-420] | 257 nM |
| COCCOc1ccccc1C1C(C(=O)CC(C)C)=C(O)C(=O)N1c1ccc(-c2cscn2)cc1 (stereo not shown) [Compound I-421] | 191 nM |
| COCc1ccccc1C1C(C(=O)CC(C)C)=C(O)C(=O)N1c1ccc(-c2cscn2)cc1 (stereo not shown) [Compound I-422] | 361 nM |
| COCCOc1ccccc1C1C(C(=O)C(C)C)=C(O)C(=O)N1c1ccc(-c2csc(C)n2)cc1 (stereo not shown) [Compound I-424] | 519 nM |

Compounds with a lower IC50, results first:

| IC50 | Compound |
| --- | --- |
| 47 nM | CCOc1ccccc1C1C(C(=O)CC(C)C)=C(O)C(=O)N1c1ccc(-c2ccoc2)cc1 (stereo not shown) [Compound I-347] |
| 37 nM | COCOc1ccccc1C1C(C(=O)CC(C)C)=C(O)C(=O)N1c1ccc(-c2ccoc2)cc1 (stereo not shown) [Compound I-349] |
| 44 nM | COCc1ccccc1C1C(C(=O)CC(C)C)=C(O)C(=O)N1c1ccc(-c2ccco2)cc1 (stereo not shown) [Compound I-355] |
| 7 nM | COCc1ccccc1[C@@H]1C(C(=O)CC(C)C)=C(O)C(=O)N1c1ccc(-c2ccsc2)cc1 [Compound I-356] |
| 20 nM | COCCOc1ncccc1C1C(C(=O)C(C)C)=C(O)C(=O)N1c1ccc(-c2ccc(C)o2)cc1 (stereo not shown) [Compound I-357] |
| 25 nM | Cc1ccc(-c2ccc(N3C(=O)C(O)=C(C(=O)C(C)C)C3c3ccccc3OC(F)F)cc2)o1 (stereo not shown) [Compound I-358] |
| 24 nM | Cc1ccc(-c2ccc(N3C(=O)C(O)=C(C(=O)C(C)C)C3c3ccccc3OC(F)(F)F)cc2)o1 (stereo not shown) [Compound I-359] |
| 21 nM | COCCOc1ncccc1C1C(C(=O)CC(C)C)=C(O)C(=O)N1c1ccc(-c2ccc(C)o2)cc1 (stereo not shown) [Compound I-360] |
| 48 nM | Cc1ccc(-c2ccc(N3C(=O)C(O)=C(C(=O)CC(C)C)C3c3ccccc3OC(F)F)cc2)o1 (stereo not shown) [Compound I-361] |
| 40 nM | Cc1ccc(-c2ccc(N3C(=O)C(O)=C(C(=O)CC(C)C)C3c3ccccc3OC(F)(F)F)cc2)o1 (stereo not shown) [Compound I-362] |
| 7 nM | COCCOc1cc(F)ccc1C1C(C(=O)C(C)C)=C(O)C(=O)N1c1ccc(-c2ccsc2)cc1 (stereo not shown) [Compound I-363] |
| 9 nM | COCCOc1cc(F)ccc1C1C(C(=O)CC(C)C)=C(O)C(=O)N1c1ccc(-c2ccsc2)cc1 (stereo not shown) [Compound I-364] |
| 13 nM | CC(C)CC(=O)C1=C(O)C(=O)N(c2ccc(-c3ccsc3)cc2)C1c1ccccc1OCCCO (stereo not shown) [Compound I-366] |
| 19 nM | COCCOc1cc(F)ccc1C1C(C(=O)C(C)C)=C(O)C(=O)N1c1ccc(-c2ccoc2)cc1 (stereo not shown) [Compound I-367] |
| 16 nM | COCCOc1cc(F)ccc1C1C(C(=O)CC(C)C)=C(O)C(=O)N1c1ccc(-c2ccoc2)cc1 (stereo not shown) [Compound I-368] |
| 35 nM | COCOc1ccccc1C1C(C(=O)CC(C)C)=C(O)C(=O)N1c1ccc(-c2csc(C)c2)cc1 (stereo not shown) [Compound I-372] |
| 40 nM | Cc1cc(-c2ccc(N3C(=O)C(O)=C(C(=O)CC(C)C)C3c3ccccc3OCCO)cc2)cs1 (stereo not shown) [Compound I-374] |
| 30 nM | COCCOc1ccccc1C1C(C(=O)CC(C)C)=C(O)C(=O)N1c1ccc(-c2csc(C)c2)cc1 (stereo not shown) [Compound I-375] |

| IC50 | Compound |
| --- | --- |
| 25 nM | COCc1ccccc1C1C(C(=O)CC(C)C)=C(O)C(=O)N1c1ccc(-c2csc(C)c2)cc1 (stereo not shown) [Compound I-376] |
| 7 nM | COCc1ccccc1C1C(C(=O)CC(C)C)=C(O)C(=O)N1c1ccc(-c2ccc(C)o2)cc1 (stereo not shown) [Compound I-380] |
| 7 nM | COCCOc1ccccc1C1C(C(=O)CC(C)C)=C(O)C(=O)N1c1ccc(-c2ccc(C)o2)cc1 (stereo not shown) [Compound I-381] |
| 6 nM | COCOc1ccccc1C1C(C(=O)CC(C)C)=C(O)C(=O)N1c1ccc(-c2ccc(C)o2)cc1 (stereo not shown) [Compound I-382] |
| 36 nM | COc1ccccc1C1C(C(=O)CC(C)C)=C(O)C(=O)N1c1ccc(-c2ccc(C)o2)cc1 (stereo not shown) [Compound I-383] |
| 19 nM | Cc1ccc(-c2ccc(N3C(=O)C(O)=C(C(=O)CC(C)C)C3c3ccccc3OCCO)cc2)o1 (stereo not shown) [Compound I-384] |
| 15 nM | COCc1ccccc1[C@@H]1C(C(=O)C(C)C)=C(O)C(=O)N1c1ccc(-c2ccc(C)s2)cc1 [Compound I-393] |
| 11 nM | COCc1ccccc1[C@@H]1C(C(=O)C(C)C)=C(O)C(=O)N1c1ccc(-c2cccs2)cc1 [Compound I-394] |
| 6 nM | COCCOc1ncccc1[C@@H]1C(C(=O)C(C)C)=C(O)C(=O)N1c1ccc(-c2ccsc2)cc1 [Compound I-395] |
| 7 nM | Cc1ccc(-c2ccc(N3C(=O)C(O)=C(C(=O)C(C)C)C3c3ccccc3OC(C)C)cc2)o1 (stereo not shown) [Compound I-396] |
| 14 nM | Cc1ccc(-c2ccc(N3C(=O)C(O)=C(C(=O)CC(C)C)C3c3ccccc3OC(C)C)cc2)o1 (stereo not shown) [Compound I-398] |
| 44 nM | Cc1ccc(-c2ccc(N3C(=O)C(O)=C(C(=O)CC(C)C)C3c3ccccc3C(=O)N(C)C)cc2)o1 (stereo not shown) [Compound I-399] |
| 22 nM | Cc1ccc(-c2ccc(N3C(=O)C(O)=C(C(=O)C(C)C)C3c3ccccc3OC(C)C)cc2)s1 (stereo not shown) [Compound I-400] |
| 31 nM | CC(C)CC(=O)C1=C(O)C(=O)N(c2ccc(-c3ccsc3)cc2)C1c1ccccc1C(=O)N(C)C (stereo not shown) [Compound I-405] |
| 29 nM | Cc1ccc(-c2ccc(N3C(=O)C(O)=C(C(=O)CC(C)C)C3c3ccccc3C(=O)N(C)C)cc2)s1 (stereo not shown) [Compound I-406] |
| 18 nM | CC(C)CC(=O)C1=C(O)C(=O)N(c2ccc(-c3ccoc3)cc2)C1c1ccccc1OC(C)C (stereo not shown) [Compound I-408] |
| 42 nM | CC(C)CC(=O)C1=C(O)C(=O)N(c2ccc(C3=NCCS3)cc2)C1c1ccccc1OC(C)C (stereo not shown) [Compound I-413] |
| 32 nM | Cc1cc(-c2ccc(N3C(=O)C(O)=C(C(=O)C(C)C)C3c3ccccc3OC(C)C)cc2)cs1 (stereo not shown) [Compound I-419] |
